Measurements taken from patent publication US9504676B2, “Molecules inhibiting a metabolic pathway involving the Syk protein tyrosine kinase and method for identifying said molecules” (CENTRE NATIONAL DE LA RECHERCHE SCIENTIFIQUE, priority 2008, dated 2016).

Legend:
ERK1/2 = assay: MAP kinase activation: ERK1/2 phosphorylation level; type: cell-based; conditions: high C-13 concentration
Experimental: (§1) The association of SLP-76 with Vav and/or Nck plays a role in optimal MAP kinase activation in mast cells^27.
(§2) • 1) Chemical products and antibodies. A chemical bank of 3000 molecules (a varied subset) was acquired from ChemBridge, Inc. (San Diego, Calif.). Stocks of solutions of small molecules were prepared at a rate of 10 mM in DMSO (dimethylsulphoxide), except for C-13 (methyl 2-{5-[(3-benzyl-4-oxo-2-thioxo-1,3-thiazolidin-5-ylidene)methyl]-2-furyl}benzoate, ChemBridge ID No. 6197026) prepared in DMF (dimethylformamide). Unless specified otherwise, all the reagents were supplied by Sigma. Dinitrophenyl (DNP) hapten was acquired from Calbiochem. Sepharose GammaBind G and all the secondary antibodies were supplied by GE Health Amersham Biosciences. […] The binding of G4G11 with Syk was assessed by adding the 9E10 monoclonal antibody conjugated with HRP detecting the amino acid sequence EQKLISEEDLN of human c-myc protein located at the C-terminal end of the scFv fragment. To generate Syk mutants, targeted mutagenesis was used on GST:Syk 6-242 protein and the binding of G4G11 with the mutants was assessed in the presence of 5 μM of C-13. • 3) Cells, culture conditions and functional tests. […] The level of β-hexosaminidase released was measured 10 min later and the TNF-α titration was performed by means of a cytotoxicity test on L929 cells as described previously^10, 3 hours after stimulation. […]

p38 and JNK = assay: MAP kinase activation: p38 and JNK phosphorylation levels; type: cell-based; conditions: high C-13 concentration
Experimental: as §1, §2

COC(=O)c1ccccc1-c1ccc(/C=C2/SC(=S)N(Cc3ccccc3)C2=O)o1 [Molecule C-13, methyl 2-{5-[(3-benzyl-4-oxo-2-thioxo-1,3-thiazolidin-5-ylidene)methyl]-2-furyl}benzoate]
phosphorylation level ERK1/2 (ERK1/2): reduces
phosphorylation levels of p38 and JNK (p38 and JNK): remain normal
